Experimental data taken from patent publication US5877210A, “Phosphotyrosine phosphatase inhibitors or phosphotyrosine kinase activators for controlling cellular proliferation” (priority 1995, dated 1999).
“And” between values parts separate entries of the source, which are not always exact repeats. Identical values can stand only once. “Also recorded” adds a separate entry of the source.

Columns and labels:
L1210 = test: [3H]thymidine incorporation assay; assay type: cell-based, murine; settings: 5 days
Protocol: (§1) The cell lines A20, 70Z-3, L1210, and P388D were used. A20 is a B cell lymphoma cell line; 70Z/3 is a B cell leukemia cell line; L1210 is a T cell leukemia cell line; and P388D is a myeloid leukemia cell line. The cells were grown for 5 days in the presence of pV(phen) and pulsed with [^3 H]-thymidine on day 5. The extent of DNA synthesis was then determined by counting the radioactivity incorporated into the cells, as in Example 5, supra. […] The effects on L1210 cells and P388D cells are particularly noteworthy because these cell lines have been extensively used by the National Cancer Institute to identify anti-cancer drugs.

P388D = test: [3H]thymidine incorporation assay; assay type: cell-based, murine; settings: 5 days
Protocol: as §1

[1] = tested on: i.p. implanted P388 murine leukemia; test: In vivo antitumor test, P388
CEM = test: Apoptosis: DNA fragmentation on agarose gel; assay type: cell-based, human
Protocol: (§2) For these experiments, cell samples (2×10^6 cells) were centrifuged at 200× g, the media removed by aspiration and the cell pellets stored at -70° C. until processing. Cell pellets were resuspended in 300 μl digestion buffer (100 mM NaCl, 10 mM Tris-HCl, pH 8.0, 25 mM EDTA, 0.5% SDS, 0.1 mg/ml protease K) and incubated for 12 hours at 50° C. DNase-free ribonuclease (5 μg) in 200 μl TE buffer (10 mM Tris-HCl, pH 7.5, 1 mM EDTA) was added to each sample followed by incubation for 2 hours at 37° C. DNA was then extracted once with phenol:chloroform, once with chloroform and then precipitated with 0.5 volumes of ammonium acetate and 2 volumes of ethanol at -70° C. for 12 hours. The precipitated DNA was resuspended in 200 μl TE buffer and quantitated by absorbance at 260 nanometers. The DNA (15 μg) was applied to a 1.3% agarose gel in TBE buffer (89 mM Tris base, 89 mM boric acid, 2 mM EDTA) resolved at 20 mA constant current and the DNA was visualized by staining with ethidium bromide. Fragmented DNA due to apoptosis appeared as a ladder of bands on the gel.

HL60 = test: Apoptosis: DNA fragmentation on agarose gel; assay type: cell-based, human; settings: dose dependent
Protocol: as §2

Jurkat = test: Apoptosis: DNA fragmentation on agarose gel; assay type: cell-based, human
Protocol: as §2

[2] = tested on: Ramos B cell lymphoma cells; test: Apoptosis: DNA fragmentation on agarose gel; assay type: cell-based, human; settings: 10 μM, by 48 hours
Protocol: as §2

REH = test: Clonogenic assay in methylcellulose; assay type: cell-based; settings: for colonies formed: seven days
Protocol: (§3) The selective cytotoxicity of BMLOV was examined in clonogenic assays. Cells were grown in methylcellulose media and the number of colonies formed after seven days of treatment with various doses of the drug were determined. The clonogenic assays were performed with six replicates for each treatment as described [F. M. Uckun et al., J. Exp. Med. 163:347-368 (1986); F. M. Uckun & J. A. Ledbetter, Proc. Natl. Acad. Sci. USA 85:8603-8607 (1988)). The data is given plus/minus the standard error of the mean.
For assays of cellular proliferation, cells were grown five days in the presence of the indicated concentrations of BMLOV, pulsed 6 hr with [^3 H]-thymidine (New England Nuclear, Boston, Mass.), and counted in a liquid scintillation counter. Human peripheral blood lymphocytes (PBL) from normal volunteers were isolated from lymphocyte separation medium (Litton Bionetics, Kensington, Md.) by density gradient centrifugation. Monocytes were depleted from PBL by two rounds of plastic absorption for 30 minutes at 37° C. B cells were enriched for by negative selection using complement plus monoclonal antibodies to CD2, CD3, CD4, and CD8 for complement depletion. Clonogenic assays of colony formation in methylcellulose medium were performed as previously described (F. M. Uckun et al. (1992), supra).

[3] = tested on: MDAMB-453 breast carcinoma cells; test: Clonogenic assay in methylcellulose; assay type: cell-based; settings: dose as high as 100 μM BMLOV
Protocol: as §3

Ramos B cells = test: Ca2+ signaling in Ramos B cells; assay type: cell-based, human
Protocol: Ca^2+ responses were measured using indo-1 (Molecular Probes, Eugene, Oreg.) and a model 50 HH/2150 flow cytometer (Ortho, Westwood, Mass.) as previously described (P. S. Rabinovitch et al., J. Immunol. 137:952-961 (1986)). The histograms were analyzed by programs (Cicero, Cytomation Inc., Ft. Collins, Colo.) that calculate the mean indo-1 violet/blue fluorescence ratio versus time. There are 100 data points on the X (time) axis for all flow cytometric data.
In the experiments shown in FIG. 22, Ramos B cells were treated overnight with the indicated concentrations of BMLOV. The baseline level of intracellular free Ca^2+ ([Ca^2+ ]i) was established for 1 min, and then the cells were treated with anti-human IgM F(ab')2 (α-μ). The gap in the trace reflects the addition of α-μ. An acute Ca^2+ response to the addition of BMLOV to the Ramos cells was not observed, in contrast to the rapid elevation of Ca^2+ observed following treatment with pervanadate or H2 O2 (G. L. Schieven et al., Blood 82:1212-1220 (1993)); G. L. Schieven et al., J. Biol. Chem. 268:16688-16692 (1993)).

T cells = test: Anti-phosphotyrosine immunoblot of T cell lysates, basal and anti-CD3 stimulated; assay type: cell-based; settings: 16 h, even at 50 μM BMLOV
Protocol: In the experiments shown in FIG. 25, human PHA-induced T cell blasts were treated overnight with the indicated concentrations of BMLOV. In Panel A, the baseline level of intracellular free Ca^2+ ([Ca^2+ ]i) was established for 1 min, and then the cells were treated with biotinylated anti-CD3 mAb (G19-4). After 5 min avidin was added (gap in the trace) to cross-link the antibody. In Panel B, assays were performed as in Panel A, but in the presence of 5 mM EGTA. […] In the experiments shown in FIG. 26, cells were treated 16 h with BMLOV and then stimulated with anti-CD3 mAb G19-4 for 5 min. Cells were then washed and resuspended in fresh media at equal concentrations of BMLOV at 37° C. Cells were then harvested and lysed at times following the initiation of CD3 stimulation as indicated. Antibody binding in immunoblots was detected by ECL.

[Na+].[O]=[V-]12([O][O]1)[O][O]2.c1cnc2c(c1)ccc1cccnc12 [pV(phen), sodium (1,10-phenanthroline) oxodiperoxovanadium (V)]
[3H]-thymidine radioactivity incorporated (L1210; 5 μM pV(phen)): 244 ± 155
[3H]-thymidine radioactivity incorporated (L1210; 10 μM pV(phen)): 464 ± 116
[3H]-thymidine radioactivity incorporated (P388D; 5 μM pV(phen)): 2513 ± 1424
[3H]-thymidine radioactivity incorporated (P388D; 10 μM pV(phen)): 362 ± 60
Max. % T/C ([1]; Expt. 8457, 8 mg/kg/inj (MTD reached), d.1, ip, 8 mg/kg): < 125% and 105%
dose considered to be a MTD ([1]; daily i.p. injections days 1 to 5, Expt. 8459): 12 mg/kg per injection
excessively toxic, i.e. lethal, dose ([1]; single i.p. doses, Expt. 8457): greater than or equal to 32 mg/kg

Cc1occc(=O)c1[O-].Cc1occc(=O)c1[O-].[O]=[V+2] [BMLOV, Bis(maltolato)oxovanadium (IV)]
induction of apoptosis (DNA fragmentation) (CEM): apoptosis was not observed; also recorded: DNA fragmentation was not observed
induction of apoptosis (DNA fragmentation) (HL60): Apoptosis was also observed to be induced; also recorded: DNA fragmentation was also induced
induction of apoptosis (DNA fragmentation) (Jurkat): apoptosis was not observed; also recorded: DNA fragmentation was not observed
induction of apoptosis (DNA fragmentation) [2]: induced apoptosis; also recorded: induced extensive DNA fragmentation
percentage of inhibition of clonogenic growth (REH; 1 μM BMLOV): 64.7%
colonies formed (REH; 1 μM BMLOV): 1810 ± 385 colonies per 10^4 cells
percentage of inhibition of clonogenic growth (REH; 5 μM BMLOV): 98.6%
colonies formed (REH; 5 μM BMLOV): 71 ± 8 colonies per 10^4 cells
percentage of inhibition of clonogenic growth (REH; 10 μM BMLOV): 99.8%
colonies formed (REH; 10 μM BMLOV): 8 ± 1 colonies per 10^4 cells
inhibition of clonogenic growth [3]: inhibited only moderately
Ca2+ signals induced by cross-linking sIgM (Ramos B cells; 25 μM BMLOV, overnight): Complete inhibition
UV-induced Ca2+ signals (Ramos B cells; Ramos B cells): greatly increased and prolonged UV-induced Ca^2+ signals
basal Ca2+ levels (Ramos B cells; Ramos B cells, BMLOV 16 h): elevation of basal Ca^2+ levels
basal or T cell receptor induced cellular tyrosine phosphorylation (T cells): little effect on basal or T cell receptor induced cellular tyrosine phosphorylation
